In PMC7126728 (Bioorganic & Medicinal Chemistry, 2015):

Assays:
HCMV = format: cell-based, human cytomegalovirus; conditions: HEL cell cultures
VZV = format: cell-based, varicella zoster virus; conditions: HEL cell cultures

With `O=C(Cn1c(=O)ccn(COCCOCc2ccc(Br)cc2)c1=O)Nc1ccc(Oc2ccccc2)cc1` [Compound 20, 2-[3-[[2-(4-Bromobenzyloxy)ethoxy]methyl]-2,6-dioxo-3,6-dihydropyrimidin-1(2H)-yl]-N-(4-phenoxyphenyl)acetamide] the “anti-HCMV activity (in words)” value (HCMV) was “completely inactive” and the “anti-VZV activity (in words)” value (VZV) was “loss of activity”.
With `O=C(Cn1c(=O)ccn(Cc2ccc(Oc3ccc(Br)cc3)cc2)c1=O)Nc1ccc(Oc2ccccc2)cc1` [Compound 23, 2-[3-[4-(4-Bromophenoxy)benzyl]-2,6-dioxo-3,6-dihydropyrimidin-1(2H)-yl]-N-(4-phenoxyphenyl)acetamide] the “anti-VZV activity (in words)” value (VZV) was “loss of activity”.
For `O=C(Cn1c(=O)ccn(CCCCCOc2ccccc2)c1=O)Nc1ccc(Oc2ccccc2)cc1` [Compound 7a, 2-[2,6-Dioxo-3-(5-phenoxypentyl)-3,6-dihydropyrimidin-1(2H)-yl]-N-(4-phenoxyphenyl)acetamide], the “anti-VZV activity (in words)” value (VZV) was “inactive”.
`O=C(Cn1c(=O)ccn(CCCCCCc2ccccc2)c1=O)Nc1ccc(Oc2ccccc2)cc1` [Compound 13, 2-[2,6-Dioxo-3-(6-phenylhexyl)-3,6-dihydropyrimidin-1(2H)-yl]-N-(4-phenoxyphenyl)acetamide] was tested, and the “anti-HCMV activity (in words)” value (HCMV) was “loss of activity” and the “anti-VZV activity (in words)” value (VZV) was “loss of activity”.
`O=C(Cn1c(=O)ccn(CCCCOCc2ccc(Br)cc2)c1=O)Nc1ccc(Oc2ccccc2)cc1` [Compound 17, 2-[3-[4-(4-Bromobenzyloxy)butyl]-2,6-dioxo-3,6-dihydropyrimidin-1(2H)-yl]-N-(4-phenoxyphenyl)acetamide] was tested, and the “anti-VZV activity (in words)” value (VZV) was “loss of activity”.
With `O=C(Cn1c(=O)c(I)cn(CCCCCOc2ccc(Br)cc2)c1=O)Nc1ccc(Oc2ccccc2)cc1` [Compound 7j, 2-[3-[5-(4-Bromophenoxy)pentyl]-5-iodo-2,6-dioxo-3,6-dihydropyrimidin-1(2H)-yl]-N-(4-phenoxyphenyl)acetamide] the “anti-HCMV activity (in words)” value (HCMV) was “completely inactive” and the “anti-VZV activity (in words)” value (VZV) was “completely inactive”.
